Assay results taken from patent publication US8691986B2, “Azetidine and piperidine compounds useful as PDE10 inhibitors” (Amgen Inc., priority 2012, dated 2014).

What was measured:
human PDE2A1 = human PDE2A1 (Homo sapiens (Human), UniProt O00408); experiment: PDE2A inhibition, PDE IMAP TR-FRET assay; assay type: biochemical; details: FAM-cAMP substrate
Description: Purified human PDE2A1 and PDE10A2 enzymes were obtained from BPS Bioscience (San Diego, Calif.). IMAP™ TR-FRET progressive binding system, FAM-cAMP substrate were from Molecular Devices (Sunnyvale, Calif.).
The PDE IMAP assay was conducted in a 384-well black Greiner polypropylene plate (Sigma, St. Louis, Mo.). PDE inhibitors were serial diluted in 100% DMSO and dispensed into assay plate at […] per well using Echo® Liquid Handling System from LABCYTE. Ten μL of PDE enzyme in IMAP reaction buffer (10 mM Tris-HCl, pH 7.2, 10 mM MgCl2, 0.05% NaN3, and 0.01% Tween-20) was added into the assay wells. The PDE enzyme concentration used was based on each lot of enzyme activity, to ensure enzyme reaction falls in a linear range under assay condition. 1.4 nM of PDE2 or […] PDE10 were used in the assay system. Enzyme was pre-incubated with inhibitors for 60 minutes at room temperature before addition of 10 uL of substrate addition, which results in 100 nM of FAM-cAMP in the reaction. Enzyme reaction was allowed to proceed at room temperature for 90 min, and the reaction is stopped by 55 μl addition of binding reagent according to manufacturer's recommendation. The mixture is further incubated at room temperature for additional 4 hours, and signal was read on an Envision multimode reader (PerkinElmer). Fluorescence signals were measured at 520 nm and 485 nm. The signal ratio at 520/485 nm corresponded to the generation of reaction product of AMP, and it was used in all data analysis. Values from DMSO-treated wells were normalized to POC=100, and no-enzyme wells were normalized to POC=0. IC50 values were determined by using the Genedata Screener V9.0.1. The curve fitting algorithm used for dose response data analysis in Genedata Screener is a custom implementation of a robust curve-fitting algorithm called ROUT (Robust regression with outlier detection) and uses a four-parameter logistical (4 PL) Hill model.

PDE10 = PDE10 (Rattus norvegicus (Rat), UniProt Q9QYJ6); experiment: PDE10 ex vivo receptor occupancy (RO) screening in rat striatum; details: oral; for receptor occupancy at 3 mg/kg: 3 mpk, 4 h (footnote C); for receptor occupancy at 10 mg/kg: 10 mpk
Chain of PDE10 (Q9QYJ6 whole entry): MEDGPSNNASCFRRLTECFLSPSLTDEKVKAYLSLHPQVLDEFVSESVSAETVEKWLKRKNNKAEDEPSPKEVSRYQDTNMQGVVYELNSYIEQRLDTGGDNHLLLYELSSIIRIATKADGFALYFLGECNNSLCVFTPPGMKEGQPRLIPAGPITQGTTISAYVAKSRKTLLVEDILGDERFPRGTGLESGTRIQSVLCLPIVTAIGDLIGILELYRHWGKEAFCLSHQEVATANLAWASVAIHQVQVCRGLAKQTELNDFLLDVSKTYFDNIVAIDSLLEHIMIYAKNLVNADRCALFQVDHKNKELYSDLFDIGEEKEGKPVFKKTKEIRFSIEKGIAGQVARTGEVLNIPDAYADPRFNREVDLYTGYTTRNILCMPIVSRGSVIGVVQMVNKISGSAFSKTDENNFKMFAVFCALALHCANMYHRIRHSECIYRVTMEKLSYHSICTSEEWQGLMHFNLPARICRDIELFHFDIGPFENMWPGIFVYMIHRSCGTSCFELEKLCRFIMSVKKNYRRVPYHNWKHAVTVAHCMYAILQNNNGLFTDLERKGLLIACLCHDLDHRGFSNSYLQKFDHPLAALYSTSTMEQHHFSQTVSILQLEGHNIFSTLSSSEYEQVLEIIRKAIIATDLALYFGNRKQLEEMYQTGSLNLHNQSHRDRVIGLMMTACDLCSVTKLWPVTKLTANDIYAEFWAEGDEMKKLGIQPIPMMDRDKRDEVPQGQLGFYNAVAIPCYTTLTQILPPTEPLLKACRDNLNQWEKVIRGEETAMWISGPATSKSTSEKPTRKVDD
Description: The ex vivo screening protocol was approved by Amgen's Institutional Animal Care and Use Committee (IACUC) and in accordance with the National Institutes of Health Guide for Care and Use of Laboratory Animals in facilities accredited by the Association for the Assessment and Accreditation of Laboratory Animal Care (AALAC).
PDE10 inhibitors were dissolved in 2% Hydroxypropylmethylcellulose (HPMC), 1% Tween-80, pH 2.2 with methanesulfonic acid. Male Sprague Dawley® rats weighing 180-225 g (4 per group) were dosed orally with either vehicle or PDE10 inhibitors (3 mg/kg or 10 mg/kg) and then returned to their home cage to allow for absorption of the compounds. After one hour (with 10 mg/kg PDE10 inhibitor) or four hours (with 3 mg/kg or 10 mg/kg PDE10 inhibitor) rats were sacrificed by CO2 inhalation. Blood was obtained by heart puncture and plasma was frozen and stored at −80° C. for exposure analysis. Brains were removed and immediately frozen in chilled methylbutane, and stored at −80° C. until cutting. Three coronal brain slices per brain containing the striatum were cut at […] using a cryostat and placed onto microscope slides, air-dried and stored at −20° C. For radioligand binding experiments, slides were thawed at room temperature and then incubated with 1 nM a tritium labeled tracer compound (insert citation) in binding buffer (150 mM Phosphate-buffered saline containing 2 mM MgCl2 and 100 mM DTT, pH 7.4) for 1 minute at 4° C. To assess non-specific binding, slides containing adjacent brain sections were incubated in the same solution with addition of […] of an unlabelled, structurally unrelated PDE10 antagonist. Afterwards slides were washed 3 times in ice-cold binding buffer, dipped into distilled water to remove buffer salts, and dried under a stream of cold air. Emission of beta particles from the sections was counted for 8 hours in a Beta Imager 2000 (Biospace, Paris, France) and digitized and analyzed using M3 Vision software (Biospace, Paris, France). Total binding radioactivity in the striatum was measured as cpm/mm^2 in hand-drawn regions of interest and averaged across the three sections per brain. Non-specific binding was subtracted to obtain specific binding values and percent occupancy was calculated by setting vehicle specific binding as 0% occupancy.

rat MDR1 (mdr1a, P-gp) = experiment: Transcellular transport in rat mdr1a-transfected LLC-PK1 cells; assay type: in vitro ADME; details: pH 7.4, mdr1a-LLC-PK1, 5 μM test compound
Description: Digoxin and mannitol were purchased from Sigma-Aldrich (St. Louis, Mo.). 3H-digoxin and 14C-mannitol were purchased from PerkinElmer Life and Analytical Sciences (Boston, Mass.). Transport buffer was prepared using Hank's balanced salt solution (HBSS) supplemented with 10 mM Hepes, pH 7.4 and 0.1% BSA (HHBSS, Invitrogen, Grand Island, N.Y., BSA, Bovine Serum Albumin, Calbiochem, La Jolla, Calif.).
Cultures were incubated at 37° C. in a humidified (95% relative humidity) atmosphere of 5% CO2/95% air. The parental cell line LLC-PK1 (porcine renal epithelial cells) was purchased from American Type Culture Collection (ATCC, Manassas, Va.). Human MDR1 and Sprague-Dawley rat mdra1 transfectants in LLC-PK1 were generated at Amgen (Thousand Oaks, Calif.). Cells were cultured in Medium 199 supplemented with 2 mM L-glutamine, penicillin (50 units/mL), streptomycin (50 μg/mL), and 10% (v/v) fetal bovine serum (all from Invitrogen) (Schinkel et al, 1995).
LLC-PK1, MDR1-LLC-PK1, and mdr1a-LLC-PK1 cell monolayers were seeded onto porous (1.0 μm) polycarbonate 96-well transwell membrane filters (Millipore Corp., Billerica, Mass.) and cultured for six days with one media replacement on day four prior to transwell experiments. Cells were washed once with warmed HHBS prior to transwell experiments. Experiments were initiated by replacing the buffer in each compartment with 0.15 mL of HBSS containing 0.1% BSA with and without 5 μM of test compound in triplicate wells. The plates were incubated for two hours at 37° C. in an EVO incubator with shaking. Aliquots (100 μl) from both donor and receiver chambers were transferred to 96 well plates or scintillation vials. Protein was precipitated by addition of 200 μL acetonitrile containing 0.1% formic acid and prazosin (25 ng/mL) as internal standard. After vortexing and centrifugation at 3000 rpm for 20 min, 150 μL supernatant samples were transferred to a new plate containing 50 μL water for LC-MS/MS analysis. Transcellular transport of 3H-Digoxin was used as a positive control for Pgp. Paracellular permeability of 14C-Mannitol was used to measure the integrity of the monolayer. Sample radioactivity was measured using a liquid scintillation counter (Packard Tri-Carb 2910TR, PerkinElmer).
The apparent permeability coefficient (Papp) of all tested agents was estimated from the slope of cumulative amount (dQ) of the agent vs. time (dt), and the equation: Papp=(dQ/dt)/(A*C0)
where dQ/dt is the penetration rate of the agent […], A is the surface area of the cell layer on the Transwell (0.11 cm2), and CO is the initial concentration of the test compound (μM).

Chain of human PDE2A1 (O00408 other isoform, or with tags, fused parts or gaps): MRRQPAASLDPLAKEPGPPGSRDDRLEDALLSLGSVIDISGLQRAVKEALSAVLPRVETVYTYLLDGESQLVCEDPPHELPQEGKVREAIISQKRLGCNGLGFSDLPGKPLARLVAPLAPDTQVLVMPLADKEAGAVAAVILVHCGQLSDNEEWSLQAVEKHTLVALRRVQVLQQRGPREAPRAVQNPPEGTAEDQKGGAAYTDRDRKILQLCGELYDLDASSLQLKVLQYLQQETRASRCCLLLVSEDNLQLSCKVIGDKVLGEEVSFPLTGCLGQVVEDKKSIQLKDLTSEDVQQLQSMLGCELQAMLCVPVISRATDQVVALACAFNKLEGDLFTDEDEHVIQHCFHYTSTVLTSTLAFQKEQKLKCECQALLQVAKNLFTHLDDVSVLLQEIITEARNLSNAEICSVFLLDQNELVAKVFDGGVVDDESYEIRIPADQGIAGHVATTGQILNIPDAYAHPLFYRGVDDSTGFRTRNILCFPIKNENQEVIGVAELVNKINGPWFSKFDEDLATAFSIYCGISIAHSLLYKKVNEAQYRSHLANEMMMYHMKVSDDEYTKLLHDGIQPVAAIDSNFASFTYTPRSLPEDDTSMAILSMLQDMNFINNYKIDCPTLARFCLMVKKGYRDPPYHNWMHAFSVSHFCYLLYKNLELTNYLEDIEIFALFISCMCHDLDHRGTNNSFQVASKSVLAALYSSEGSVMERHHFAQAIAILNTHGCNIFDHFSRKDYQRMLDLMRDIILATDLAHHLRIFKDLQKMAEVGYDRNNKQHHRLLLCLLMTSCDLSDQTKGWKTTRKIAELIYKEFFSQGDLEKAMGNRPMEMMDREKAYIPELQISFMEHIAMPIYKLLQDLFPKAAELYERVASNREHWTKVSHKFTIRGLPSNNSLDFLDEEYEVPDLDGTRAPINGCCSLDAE

SMILES	IC50 (human PDE2A1) [µM]	receptor occupancy at 3 mg/kg (PDE10) [%]	receptor occupancy at 10 mg/kg (PDE10; 4 h (footnote B)) [%]	efflux ratio at 2 h, 5 μM (rat MDR1 (mdr1a, P-gp))	receptor occupancy at 10 mg/kg (PDE10; 1 h (footnote A)) [%]
CNC(=O)c1ccc(-c2nccnc2C2CCN(c3ccc4ccc(Cl)cc4n3)CC2)cc1F [Example 1, 4-(3-(1-(7-Chloroquinolin-2-Yl)Piperidin-4-Yl)Pyrazin-2-Yl)-2-Fluoro-N-Methylbenzamide]	10	58.8	79	2.3	–
CNC(=O)c1ccc(-c2nccnc2C2CCN(c3ccc4ccc(F)cc4n3)CC2)cc1F [Example 2, 2-Fluoro-4-(3-(1-(7-Fluoroquinolin-2-Yl)Piperidin-4-Yl) Pyrazin-2-Yl)-N-Methylbenzamide]	10	–	112	2.7	–
CNC(=O)c1ccc(-c2nccnc2C2CCN(c3ccc4ccccc4n3)CC2)cc1F [Example 3, 2-Fluoro-N-Methyl-4-(3-(1-(Quinolin-2-Yl)Piperidin-4-Yl)Pyrazin-2-Yl)Benzamide]	10	97.4	–	2.1	–
CNC(=O)c1ccc(-c2nccnc2C2CCN(c3ccc4cc(F)ccc4n3)CC2)cc1F [Example 4, 2-Fluoro-4-(3-(1-(6-Fluoroquinolin-2-Yl)Piperidin-4-Yl)Pyrazin-2-Yl)-N-Methylbenzamide]	10	93.3	–	2.2	–
CNC(=O)c1ccc(-c2nccnc2C2CCN(c3ccc4cccc(F)c4n3)CC2)cc1F [Example 5, 2-Fluoro-4-(3-(1-(8-Fluoroquinolin-2-Yl)Piperidin-4-Yl)Pyrazin-2-Yl)-N-Methylbenzamide]	10	68.3	–	2.3	–
CNC(=O)c1ccc(-c2nccnc2C2CN(c3ncc4ccccc4n3)C2)cc1F [Example 6, 2-Fluoro-N-Methyl-4-(3-(1-(Quinazolin-2-Yl)Azetidin-3-Yl)Pyrazin-2-Yl)Benzamide]	10	62.6	–	1.2	85.4
CNC(=O)c1ccc(-c2nccnc2C2CN(c3ccc4ccccc4n3)C2)cc1F [Example 7, 2-Fluoro-N-Methyl-4-(3-(1-(Quinolin-2-Yl)Azetidin-3-Yl) Pyrazin-2-Yl)Benzamide]	10	110	–	3.1	93.2
CNC(=O)c1ccc(-c2nccnc2C2CN(c3ccc4ccc(F)cc4n3)C2)cc1F [Example 8, 2-Fluoro-4-(3-(1-(7-Fluoroquinolin-2-Yl)Azetidin-3-Yl) Pyrazin-2-Yl)-N-Methylbenzamide]	10	83.5	–	2.5	134
CNC(=O)c1ccc(-c2nccnc2C2CN(c3ncc4ccc(F)cc4n3)C2)cc1F [Example 9, 2-Fluoro-4-(3-(1-(7-Fluoroquinazolin-2-Yl)Azetidin-3-Yl)Pyrazin-2-Yl)-N-Methylbenzamide]	10	61.8	87.1	2.7	123
CNC(=O)c1ccc(-c2nccnc2C2CN(c3ncc4ccc(Cl)cc4n3)C2)cc1F [Example 10, 4-(3-(1-(7-Chloroquinazolin-2-Yl)Azetidin-3-Yl)Pyrazin-2-Yl)-2-Fluoro-N-Methylbenzamide]	7.38	108	–	1.2	101
CNC(=O)c1ccc(-c2nccnc2C2CN(c3ncc4cc(F)ccc4n3)C2)cc1F [Example 11, 2-Fluoro-4-(3-(1-(6-Fluoroquinazolin-2-Yl)Azetidin-3-Yl)Pyrazin-2-Yl)-N-Methylbenzamide]	10	67.5	80	1.2	–
CNC(=O)c1ccc(-c2nccnc2C2CN(c3ncc4cc(F)c(Cl)cc4n3)C2)cc1F [Example 12, 4-(3-(1-(7-Chloro-6-Fluoroquinazolin-2-Yl)Azetidin-3-Yl)Pyrazin-2-Yl)-2-Fluoro-N-Methylbenzamide]	10	91.4	–	2.8	–
CNC(=O)c1ccc(-c2nccnc2C2CN(c3ccc4cc(F)ccc4n3)C2)cc1F [Example 13, 2-Fluoro-4-(3-(1-(6-Fluoroquinolin-2-Yl)Azetidin-3-Yl) Pyrazin-2-yl)-N-Methylbenzamide]	10	77	–	2.7	–
CNC(=O)c1ccc(-c2nccnc2C2CN(c3ccc4ncc(Cl)cc4n3)C2)cc1F [Example 14, 4-(3-(1-(7-Chloro-1,5-Naphthyridin-2-Yl)Azetidin-3-Yl)Pyrazin-2-Yl)-2-Fluoro-N-Methylbenzamide]	10	78.5	–	1.1	–
